{
  "source": "PubChem BioAssay (NCI)",
  "assay_in_all_cases": "inhibition of tumour cell growth, NCI panel, 48 h",
  "key": {"[1]": {"tested_on": "786-0 renal"}, "[2]": {"tested_on": "A498 renal"}, "[3]": {"tested_on": "A549 NSCLC"}, "[4]": {"tested_on": "ACHN renal"}, "[5]": {"tested_on": "BT-549 breast"}, "[6]": {"tested_on": "CAKI-1 renal"}, "[7]": {"tested_on": "CCRF-CEM leukemia"}, "[8]": {"tested_on": "COLO 205 colon"}, "[9]": {"tested_on": "DU-145 prostate"}, "[10]": {"tested_on": "EKVX NSCLC"}, "[11]": {"tested_on": "HCC-2998 colon"}, "[12]": {"tested_on": "HCT-116 colon"}, "[13]": {"tested_on": "HCT-15 colon"}, "[14]": {"tested_on": "HL-60(TB) leukemia"}, "[15]": {"tested_on": "HOP-62 NSCLC"}, "[16]": {"tested_on": "HOP-92 NSCLC"}, "[17]": {"tested_on": "HS 578T breast"}, "[18]": {"tested_on": "HT29 colon"}, "[19]": {"tested_on": "IGROV1 ovarian"}, "[20]": {"tested_on": "K-562 leukemia"}, "[21]": {"tested_on": "KM12 colon"}, "[22]": {"tested_on": "LOX IMVI melanoma"}, "[23]": {"tested_on": "M14 melanoma"}, "[24]": {"tested_on": "MALME-3M melanoma"}, "[25]": {"tested_on": "MCF7 breast"}, "[26]": {"tested_on": "MDA-MB-231 breast"}, "[27]": {"tested_on": "MDA-MB-435"}, "[28]": {"tested_on": "MDA-MB-468 breast"}, "[29]": {"tested_on": "MOLT-4 leukemia"}, "[30]": {"tested_on": "NCI-H226 lung"}},
  "note": "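Following 48 hours of exposure in 96-well plates, responses at five concentrations were used to interpolate endpoints linearly. The concentration for 50% growth inhibition is given as GI50. The concentration for full growth arrest is given as TGI.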",
  "data": [
    {"smiles": "S=C(Nc1ccc(OCc2nc3ccc(Cl)cc3[nH]2)cc1)NC1CCCCC1", "values": [
      {"measurement": "GI50", "setting": "[1]", "result": 7.4, "unit": "µM"},
      {"measurement": "TGI", "setting": "[1]", "result": 21.4, "unit": "µM"},
      {"measurement": "GI50", "setting": "[2]", "result": 11.2, "unit": "µM"},
      {"measurement": "TGI", "setting": "[2]", "result": 23.8, "unit": "µM"},
      {"measurement": "GI50", "setting": "[3]", "result": 6.51, "unit": "µM"},
      {"measurement": "TGI", "setting": "[3]", "result": 21.6, "unit": "µM"},
      {"measurement": "GI50", "setting": "[4]", "result": 4.99, "unit": "µM"},
      {"measurement": "TGI", "setting": "[4]", "result": 17.4, "unit": "µM"},
      {"measurement": "GI50", "setting": "[5]", "result": 15, "unit": "µM"},
      {"measurement": "TGI", "setting": "[5]", "result": 29.1, "unit": "µM"},
      {"measurement": "GI50", "setting": "[6]", "result": 3.47, "unit": "µM"},
      {"measurement": "TGI", "setting": "[6]", "result": 15.5, "unit": "µM"},
      {"measurement": "GI50", "setting": "[7]", "result": 3.59, "unit": "µM"},
      {"measurement": "TGI", "setting": "[7]", "result": 16.6, "unit": "µM"},
      {"measurement": "GI50", "setting": "[8]", "result": 10.2, "unit": "µM"},
      {"measurement": "TGI", "setting": "[8]", "result": 27.6, "unit": "µM"},
      {"measurement": "GI50", "setting": "[9]", "result": 11.3, "unit": "µM"},
      {"measurement": "TGI", "setting": "[9]", "result": 27.7, "unit": "µM"},
      {"measurement": "GI50", "setting": "[10]", "result": 7.23, "unit": "µM"},
      {"measurement": "TGI", "setting": "[10]", "result": 20.9, "unit": "µM"},
      {"measurement": "GI50", "setting": "[11]", "result": 3.12, "unit": "µM"},
      {"measurement": "TGI", "setting": "[11]", "result": 12.5, "unit": "µM"},
      {"measurement": "GI50", "setting": "[12]", "result": 5.99, "unit": "µM"},
      {"measurement": "TGI", "setting": "[12]", "result": 21.5, "unit": "µM"},
      {"measurement": "GI50", "setting": "[13]", "result": 5.5, "unit": "µM"},
      {"measurement": "TGI", "setting": "[13]", "result": 18.7, "unit": "µM"},
      {"measurement": "GI50", "setting": "[14]", "result": 2.63, "unit": "µM"},
      {"measurement": "TGI", "setting": "[14]", "result": 13.2, "unit": "µM"},
      {"measurement": "GI50", "setting": "[15]", "result": 12.3, "unit": "µM"},
      {"measurement": "TGI", "setting": "[15]", "result": 26.4, "unit": "µM"},
      {"measurement": "GI50", "setting": "[16]", "result": 3.27, "unit": "µM"},
      {"measurement": "TGI", "setting": "[16]", "result": 14.7, "unit": "µM"},
      {"measurement": "GI50", "setting": "[17]", "result": 7.33, "unit": "µM"},
      {"measurement": "TGI", "setting": "[17]", "result": 28.7, "unit": "µM"},
      {"measurement": "GI50", "setting": "[18]", "result": 4.44, "unit": "µM"},
      {"measurement": "TGI", "setting": "[18]", "result": 16, "unit": "µM"},
      {"measurement": "GI50", "setting": "[19]", "result": 6.95, "unit": "µM"},
      {"measurement": "TGI", "setting": "[19]", "result": 20.2, "unit": "µM"},
      {"measurement": "GI50", "setting": "[20]", "result": 3.57, "unit": "µM"},
      {"measurement": "TGI", "setting": "[20]", "result": 15.1, "unit": "µM"},
      {"measurement": "GI50", "setting": "[21]", "result": 4.8, "unit": "µM"},
      {"measurement": "TGI", "setting": "[21]", "result": 17.5, "unit": "µM"},
      {"measurement": "GI50", "setting": "[22]", "result": 2.83, "unit": "µM"},
      {"measurement": "TGI", "setting": "[22]", "result": 11.5, "unit": "µM"},
      {"measurement": "GI50", "setting": "[23]", "result": 6.73, "unit": "µM"},
      {"measurement": "TGI", "setting": "[23]", "result": 22.5, "unit": "µM"},
      {"measurement": "GI50", "setting": "[24]", "result": 11.6, "unit": "µM"},
      {"measurement": "TGI", "setting": "[24]", "result": 23.8, "unit": "µM"},
      {"measurement": "GI50", "setting": "[25]", "result": 2.87, "unit": "µM"},
      {"measurement": "TGI", "setting": "[25]", "result": 12.4, "unit": "µM"},
      {"measurement": "GI50", "setting": "[26]", "result": 7.42, "unit": "µM"},
      {"measurement": "TGI", "setting": "[26]", "result": 20.4, "unit": "µM"},
      {"measurement": "GI50", "setting": "[27]", "result": 6.97, "unit": "µM"},
      {"measurement": "TGI", "setting": "[27]", "result": 22, "unit": "µM"},
      {"measurement": "GI50", "setting": "[28]", "result": 2.97, "unit": "µM"},
      {"measurement": "TGI", "setting": "[28]", "result": 13.2, "unit": "µM"},
      {"measurement": "GI50", "setting": "[29]", "result": 4.01, "unit": "µM"},
      {"measurement": "TGI", "setting": "[29]", "result": 13.9, "unit": "µM"},
      {"measurement": "GI50", "setting": "[30]", "result": 10.8, "unit": "µM"}
    ]}
  ]
}
